{"source": "ChEMBL document CHEMBL5346982", "about": "“Disrupting Kaposi's Sarcoma-Associated Herpesvirus (KSHV) Latent Replication with a Small Molecule Inhibitor” (J Med Chem, 2023)", "data": [{"test_system": "Human gammaherpesvirus 8", "experiment": "Inhibition of Kaposi's sarcoma-associated herpesvirus His-tagged oligomerization-deficient LANA DBD mutant (1008 to 1146 residues) assessed as disruption of LANA-DNA interaction at 250 uM preincubated with LBS1 representing 5'-Dy682-labeled double stranded DNA probe as substrate for 30 mins followed by compound addition and measured after 30 mins by Electrophoretic mobility shift assay", "details": "not given", "units": {"inhibition": "%"}, "values": [{"smiles": "Cc1cc(-c2cccc(C(=O)O)c2)ncc1-n1cc(-c2ccc(C(=O)O)cc2)nn1", "inhibition": "< 10"}, {"smiles": "Cc1cc(-c2cccc(Cl)c2)ncc1-n1cc(-c2ccc(C(=O)O)cc2)nn1", "inhibition": "< 10"}, {"smiles": "Cc1cc(-c2ccccc2)ncc1-n1cc(-c2ccc(C(=O)O)cc2)nn1", "inhibition": "< 10"}, {"smiles": "COc1ccc(-c2cc(C)c(-n3cc(-c4ccc(C(=O)O)cc4)nn3)cn2)cn1", "inhibition": "< 10"}, {"smiles": "COc1cccc(-c2cc(C)c(-n3cc(-c4ccc(C(=O)O)cc4)nn3)cn2)c1", "inhibition": "< 10"}]}, {"test_system": "Human gammaherpesvirus 8", "experiment": "Antiviral activity against Kaposi's sarcoma-associated herpesvirus infected in human HEK293 cells transfected with KSHV pGTR4:73 with four terminal repeats and LANA expression cassette containing plasmid assessed as inhibition of LANA-mediated replication of viral latent replication origin TR sequence at 15.625 to 62.5 uM incubated for 3 days by Southern blot analysis", "assay_type": "functional, organism-based", "details": "dose 15.625-62.5 µM, time 3.0 day", "values": [{"smiles": "COc1ccc(-c2cc(C)c(-n3cc(-c4ccc(C(=O)O)cc4)nn3)cn2)c(Cl)c1", "Activity": "Dose-Dependent Effect"}]}]}
